Assay results published in publication PMC4685012 (Bioorganic & medicinal chemistry, 2015).

Columns and labels:
[1] = test system: A549 cells; assay: Cell viability; assay type: cell-based; conditions: for Antiproliferative activity against A549, in words: A549 cells; for IC50: Homo sapiens, A549, 72 h, read-out: Anti-proliferative activity IC50, A549
[2] = test system: MCF-7 cells; assay: Cell viability; assay type: cell-based; conditions: for IC50: Homo sapiens, MCF7, 72 h, read-out: Anti-proliferative activity IC50, MCF-7; for Antiproliferative activity against MCF-7, in words: MCF-7 cells
[3] = molecular target: T1, HDAC6 (Homo sapiens, UniProt Q9UBN7); assay: HDAC6 inhibition, label-free mass spectrometry-based SAMDI assay; assay type: biochemical; conditions: vs 26e as printed
T1 sequence (Q9UBN7 1-1215): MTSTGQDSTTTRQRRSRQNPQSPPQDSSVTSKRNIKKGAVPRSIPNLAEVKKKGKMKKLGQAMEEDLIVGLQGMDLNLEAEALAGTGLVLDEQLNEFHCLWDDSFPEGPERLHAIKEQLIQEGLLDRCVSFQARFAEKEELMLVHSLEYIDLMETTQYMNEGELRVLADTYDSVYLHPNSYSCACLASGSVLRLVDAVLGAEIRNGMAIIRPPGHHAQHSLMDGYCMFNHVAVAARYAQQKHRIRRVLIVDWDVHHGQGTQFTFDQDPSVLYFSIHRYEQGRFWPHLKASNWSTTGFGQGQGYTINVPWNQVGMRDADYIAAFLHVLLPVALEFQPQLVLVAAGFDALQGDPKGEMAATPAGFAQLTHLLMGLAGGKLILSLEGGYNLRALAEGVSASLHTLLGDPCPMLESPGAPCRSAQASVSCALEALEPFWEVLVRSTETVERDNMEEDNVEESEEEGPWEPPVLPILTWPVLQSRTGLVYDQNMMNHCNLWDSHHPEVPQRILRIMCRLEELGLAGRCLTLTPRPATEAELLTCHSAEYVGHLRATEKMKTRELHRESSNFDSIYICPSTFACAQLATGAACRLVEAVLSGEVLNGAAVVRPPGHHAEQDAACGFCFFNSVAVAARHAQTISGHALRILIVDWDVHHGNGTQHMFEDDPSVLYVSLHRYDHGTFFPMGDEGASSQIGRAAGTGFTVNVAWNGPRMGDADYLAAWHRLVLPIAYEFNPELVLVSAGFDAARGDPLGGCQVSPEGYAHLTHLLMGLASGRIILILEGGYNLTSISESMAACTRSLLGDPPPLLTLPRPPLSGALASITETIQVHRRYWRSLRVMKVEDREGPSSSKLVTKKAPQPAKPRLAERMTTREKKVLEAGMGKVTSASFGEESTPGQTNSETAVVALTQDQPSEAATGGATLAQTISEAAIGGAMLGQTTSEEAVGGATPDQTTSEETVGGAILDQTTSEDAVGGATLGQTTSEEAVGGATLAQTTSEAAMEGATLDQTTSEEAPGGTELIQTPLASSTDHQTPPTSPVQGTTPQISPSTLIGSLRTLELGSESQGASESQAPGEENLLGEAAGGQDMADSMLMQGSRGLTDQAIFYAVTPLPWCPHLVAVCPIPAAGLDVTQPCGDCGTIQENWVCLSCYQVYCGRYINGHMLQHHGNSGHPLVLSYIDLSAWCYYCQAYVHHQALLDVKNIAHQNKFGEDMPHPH

[4] = molecular target: T2, HDAC8 (Homo sapiens, UniProt Q9BY41); assay: HDAC8 inhibition, label-free mass spectrometry-based SAMDI assay; assay type: biochemical; conditions: vs 26e as printed
T2 sequence (Q9BY41 1-377): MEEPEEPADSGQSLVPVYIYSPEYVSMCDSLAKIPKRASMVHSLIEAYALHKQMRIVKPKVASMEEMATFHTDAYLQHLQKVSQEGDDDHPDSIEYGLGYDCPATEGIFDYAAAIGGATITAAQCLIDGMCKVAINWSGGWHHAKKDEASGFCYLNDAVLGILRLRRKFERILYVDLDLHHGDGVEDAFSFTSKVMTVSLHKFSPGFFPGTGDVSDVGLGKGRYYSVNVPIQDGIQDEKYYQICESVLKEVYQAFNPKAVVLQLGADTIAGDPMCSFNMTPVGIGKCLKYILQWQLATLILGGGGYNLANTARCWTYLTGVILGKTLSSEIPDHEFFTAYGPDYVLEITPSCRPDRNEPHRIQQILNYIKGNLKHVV

[5] = test system: TNF-α, IL-1α, IL-1β mRNA expression; assay: Quantitative RT-PCR of NTHi-induced cytokine mRNA in BEAS-2B cells; assay type: cell-based, human; conditions: 1 µM, 2 h pretreatment, 1.5 h NTHi, relative to SAHA
[6] = test system: NF-κB; assay: NF-κB luciferase assay in NTHi-stimulated BEAS-2B cells; assay type: cell-based, human

Row | Structure (SMILES) | Antiproliferative activity against A549, in words [1] | IC50 [1] [µM] | IC50 [2] [µM] | Antiproliferative activity against MCF-7, in words [2] | Fold more potent against HDAC6 than 26e [3] | Fold more potent against HDAC8 than 26e [4] [fold] | Suppression of NTHi-induced TNF-α, IL-1α, IL-1β mRNA expression [5] | Effect on NF-κB activation, in words ([6]; NTHi infected BEAS-2B cells, 1 µM pre-screen) | NF-κB inhibition IC50 ([6]; NTHi-stimulated BEAS-2B cells, luciferase)
1 | CC[C@H]1OC(=O)[C@@H](C)[C@H](O[C@H]2C[C@@](C)(OC)[C@](O)(CN(C)Cc3ccc(-c4cn(CCCCCCC(=O)NO)nn4)cc3)[C@H](C)O2)[C@H](C)[C@H](O[C@H]2O[C@@H](C)C[C@@H](N(C)C)[C@@H]2O)[C@@](C)(O)C[C@H](C)CN(C)[C@@H](C)[C@H](O)[C@@]1(C)O [Compound 39f, (Azithromycin-4′′-(methylamino)-N(methyl)(4-benzyltriazolyl))-N-hydroxyheptanamide] | non-cytotoxic | > 20 | > 20 | non-cytotoxic | – | – | – | – | –
2 | CC[C@H]1OC(=O)[C@H](C)C(=O)[C@H](C)[C@@H](O[C@@H]2O[C@H](C)C[C@H](N(C)Cc3cccc(-c4cn(CCCCCCC(=O)NO)nn4)c3)[C@H]2O)[C@@](C)(OC)C[C@@H](C)C2=NCCN3C(=O)O[C@@]1(C)[C@H]3[C@H]2C [Compound 25b, (Tricyclic Ketolide-3′-(N-(3-triazolylbenzyl)))-N-hydroxyheptanamide] | – | – | – | potently inhibited | approximately 2 fold | ~5 | – | – | –
3 | CC[C@@H]1OC(=O)[C@H](C)[C@@H](O[C@@H]2C[C@](C)(OC)[C@H](O)[C@@H](C)O2)[C@@H](C)[C@@H](O[C@@H]2O[C@H](C)C[C@H](N(C)Cc3cccc(-c4cn(CCCCCCC(=O)NO)nn4)c3)[C@H]2O)[C@](C)(O)C[C@@H](C)CN(C)[C@H](C)[C@@H](O)[C@]1(C)O [Compound 16b, (Azithromycin-3′-(N-(3-triazolylbenzyl)))-N-hydroxyheptanamide] | potently inhibited | – | – | potently inhibited | – | – | – | – | –
4 | CC[C@@H]1OC(=O)[C@@H](C)[C@H](O[C@H]2C[C@@](C)(OC)[C@@H](O)[C@H](C)O2)[C@@H](C)[C@H](O[C@H]2O[C@@H](C)C[C@@H](N(C)C)[C@@H]2O)[C@](C)(O)C[C@H](C)CN(Cc2ccc(-c3cn(CCCCCCC(=O)NO)nn3)cc2)[C@H](C)[C@H](O)[C@@]1(C)O [Compound 8f, (Azithromycin-(N10-(4-triazolylbenzyl)))-N-hydroxyheptanamide] | – | – | – | – | – | – | more significantly suppressed | – | –
5 | CC[C@@H]1OC(=O)[C@@H](C)[C@H](O[C@H]2C[C@@](C)(OC)[C@@H](O)[C@H](C)O2)[C@@H](C)[C@H](O[C@H]2O[C@@H](C)C[C@@H](N(C)C)[C@@H]2O)[C@](C)(O)C[C@H](C)CN(Cc2ccc(-c3cn(CCCCC(=O)NO)nn3)cc2)[C@H](C)[C@H](O)[C@@]1(C)O [Compound 8d, (Azithromycin-(N10-(4-triazolylbenzyl)))-N-hydroxypentanamide] | devoid of antiproliferative activities | > 20 | > 20 | devoid of antiproliferative activities | – | – | – | – | –
6 | CC[C@@H]1OC(=O)[C@@H](C)[C@H](O[C@H]2C[C@@](C)(OC)[C@](O)(CN(C)Cc3ccc(-c4cn(CCCCCCC(=O)NO)nn4)cc3)[C@H](C)O2)[C@H](C)[C@H](O[C@@H]2O[C@H](C)C[C@H](N(C)C)[C@H]2O)[C@@](C)(OC)C[C@H](C)C(=O)[C@@H](C)[C@@H](O)[C@@]1(C)O [Compound 38f] | potently inhibited | – | – | potently inhibited | – | – | more significantly suppressed | – | –
7 | CC[C@H]1OC(=O)[C@H](C)C(=O)[C@H](C)[C@@H](O[C@@H]2O[C@H](C)C[C@H](N(C)Cc3ccc(-c4cn(CCCCCCC(=O)NO)nn4)cc3)[C@H]2O)[C@@](C)(OC)C[C@@H](C)C2=NCCN3C(=O)O[C@@]1(C)[C@H]3[C@H]2C [Compound 26f] | – | – | – | – | – | – | more significantly suppressed | – | –
8 | CC[C@H]1OC(=O)[C@@H](C)[C@H](O[C@H]2C[C@@](C)(OC)[C@@H](O)[C@H](C)O2)[C@H](C)[C@H](O[C@H]2O[C@@H](C)C[C@@H](N(C)Cc3ccc(-c4cn(CCCC(=O)NO)nn4)cc3)[C@@H]2O)[C@@](C)(O)C[C@H](C)CN(C)[C@@H](C)[C@H](O)[C@@]1(C)O [Compound 17c] | devoid of antiproliferative activities | > 20 | > 20 | devoid of antiproliferative activities | – | – | – | – | –
9 | CC[C@@H]1OC(=O)[C@H](C)[C@@H](O[C@@H]2C[C@](C)(OC)[C@H](O)[C@@H](C)O2)[C@@H](C)[C@@H](O[C@@H]2O[C@H](C)C[C@H](N(C)Cc3ccccc3-c3cn(CCCCCCC(=O)NO)nn3)[C@H]2O)[C@](C)(O)C[C@@H](C)CN(C)[C@H](C)[C@@H](O)[C@]1(C)O [Compound 15b, (Azithromycin-3′-(N-(2-triazolylbenzyl)))-N-hydroxyheptanamide] | devoid of antiproliferative activities | > 20 | > 20 | devoid of antiproliferative activities | – | – | – | – | –
10 | CC[C@@H]1OC(=O)[C@@H](C)[C@H](O[C@@H]2C[C@](C)(OC)[C@@](O)(CN(C)C)[C@@H](C)O2)[C@H](C)[C@H](O[C@@H]2O[C@H](C)C[C@H](N(C)Cc3ccc(-c4cn(CCCCCCC(=O)NO)nn4)cc3)[C@H]2O)[C@@](C)(OC)C[C@H](C)C(=O)[C@@H](C)[C@@H](O)[C@@]1(C)O [Compound 49b, (Clarithromycin-(4′-N-(4-benzyltriazolyl))-4′′-(N,N-dimethylaminomethyl))-N-hydroxyheptanamide] | potently inhibited | – | – | potently inhibited | – | – | – | – | –
11 | CC[C@H]1OC(=O)[C@H](C)C(=O)[C@H](C)[C@@H](O[C@@H]2O[C@H](C)C[C@H](N(C)Cc3ccccc3-c3cn(CCCCCCC(=O)NO)nn3)[C@H]2O)[C@@](C)(OC)C[C@@H](C)C2=NCCN3C(=O)O[C@@]1(C)[C@H]3[C@H]2C [Compound 24b, (Tricyclic Ketolide-3′-(N-(2-triazolylbenzyl)))-N-hydroxyheptanamide] | devoid of antiproliferative activities | > 20 | > 20 | devoid of antiproliferative activities | – | – | – | – | –
12 | CC[C@H]1OC(=O)[C@H](C)C(=O)[C@H](C)[C@@H](O[C@@H]2O[C@H](C)C[C@H](N(C)Cc3cccc(-c4cn(CCCCCC(=O)NO)nn4)c3)[C@H]2O)[C@@](C)(OC)C[C@@H](C)C2=NCCN3C(=O)O[C@@]1(C)[C@H]3[C@H]2C [Compound 25a, (Tricyclic Ketolide-3′-(N-(3-triazolylbenzyl)))-N-hydroxyhexanamide] | non-cytotoxic | > 20 | > 20 | non-cytotoxic | – | – | – | suppressing NF-κB activation | no dose-dependent effect
